The results in this text go back to patent US20180334447A1, “2,3,4,5-TETRAHYDROPYRIDIN-6-AMINE DERIVATIVES” (JANSSEN PHARMACEUTICA NV, priority 2015, published 2018).

Each structure is given as a SMILES string.

Test [1] relates to Abeta 1-42 produced and secreted into the medium of human neuroblastoma SKNBE2 cells. Kind of test: Cellular αLisa assay in SKNBE2 cells, Abeta 42. It counts as cell-based. The conditions noted are these: SKNBE2 cells expressing hAPP695, incubated for 18 hours; for IC50: Homo sapiens, SKNBE2, 18 h, read-out: Cellular αLisa assay in SKNBE2 cells Abeta 42 pIC50 (converted). Here is the method:
In two αLisa assays the levels of Abeta 1-42 produced and secreted into the medium of human neuroblastoma SKNBE2 cells are quantified. The assay is based on the human neuroblastoma SKNBE2 expressing the wild type Amyloid Precursor Protein (hAPP695). The compounds are diluted and added to these cells, incubated for 18 hours and then measurements of Abeta 1-42 are taken. Abeta 1-42 are measured by sandwich αLisa. αLisa is a sandwich assay using biotinylated antibody AbN/25 attached to streptavidin coated beads and antibody cAb42/26 conjugated acceptor beads for the detection of Abeta 1-42 respectively. In the presence of Abeta 1-42, the beads come into close proximity. The excitation of the donor beads provokes the release of singlet oxygen molecules that trigger a cascade of energy transfer in the acceptor beads, resulting in light emission. Light emission is measured after 1 hour incubation (excitation at […] and emission at 615 nm).
(§1) A best-fit curve is fitted by a minimum sum of squares method to the plot of % Controlmin versus compound concentration. From this an IC50 value (inhibitory concentration causing 50% inhibition of activity) can be obtained.

The target in test [2] is T1, recombinant BACE2 protein (Homo sapiens, UniProt Q9Y5Z0).
T1 construct: recombinant BACE2 protein in a final concentration of 0.4 μg/ml
T1 sequence (Q9Y5Z0 63-518): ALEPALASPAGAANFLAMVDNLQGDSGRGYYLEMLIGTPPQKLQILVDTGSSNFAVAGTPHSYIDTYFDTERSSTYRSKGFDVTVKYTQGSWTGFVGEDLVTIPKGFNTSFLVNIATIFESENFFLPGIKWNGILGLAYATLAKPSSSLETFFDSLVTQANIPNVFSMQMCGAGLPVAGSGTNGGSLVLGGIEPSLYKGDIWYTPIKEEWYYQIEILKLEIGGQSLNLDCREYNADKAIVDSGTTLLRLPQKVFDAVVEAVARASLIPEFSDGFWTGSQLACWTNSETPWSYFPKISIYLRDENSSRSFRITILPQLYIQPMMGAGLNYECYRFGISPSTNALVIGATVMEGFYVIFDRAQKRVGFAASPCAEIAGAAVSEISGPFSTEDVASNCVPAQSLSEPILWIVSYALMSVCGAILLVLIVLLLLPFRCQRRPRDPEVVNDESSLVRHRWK
Put plainly: BACE2 biochemical FRET based assay. The conditions noted are these: BACE2, 450 minutes at room temperature, pH 5.0; read-out: Biochemical FRET based assay pIC50 (converted).
Text: (§2) This assay is a Fluorescence Resonance Energy Transfer Assay (FRET) based assay. The substrate for this assay contains the ‘Swedish’ Lys-Met/Asn-Leu mutation of the amyloid precursor protein (APP) beta-secretase cleavage site. This substrate also contains two fluorophores: (7-methoxycoumarin-4-yl) acetic acid (Mca) is a fluorescent donor with excitation wavelength at 320 nm and emission at 405 nm and 2,4-Dinitrophenyl (Dnp) is a proprietary quencher acceptor. […] Upon cleavage by the beta-secretase, the fluorophore Mca is separated from the quenching group Dnp, restoring the full fluorescence yield of the donor. The increase in fluorescence is linearly related to the rate of proteolysis.
Briefly in a 384-well format recombinant BACE2 protein in a final concentration of 0.4 μg/ml is incubated for 450 minutes at room temperature with 10 μM substrate in incubation buffer (50 mM Citrate buffer pH 5.0, 0.05% PEG, no DMSO) in the absence or presence of compound. Next the amount of proteolysis is directly measured by fluorescence measurement at T=0 and T=450 (excitation at 320 nm and emission at 405 nm). Results are expressed in RFU (Relative Fluorescence Units), as difference between T450 and T0.
as §1

Test [3] deals with T2, recombinant BACE1 protein (Homo sapiens, UniProt P56817).
T2 construct: recombinant BACE1 protein in a final concentration of 1 μg/ml
Put plainly: BACE1 biochemical FRET based assay - Method 1. The settings on record: BACE1, 120 minutes at room temperature, pH 5.0; read-out: Biochemical FRET based assay - Method 1 pIC50 (converted).
Text: as §2, with “this assay is an APP derived 13 amino acids peptide that contains the” for “this assay contains the”, “cleavage by BACE1, the fluorophore” for “cleavage by the beta-secretase, the fluorophore”
Briefly in a 384-well format recombinant BACE1 protein in a final concentration of 1 μg/ml is incubated for 120 minutes at room temperature with 10 μm substrate in incubation buffer (40 mM Citrate buffer pH 5.0, 0.04% PEG, 4% DMSO) in the absence or presence of compound. Next the amount of proteolysis is directly measured by fluorescence measurement at T=0 and T=120 (excitation at 320 nm and emission at 405 nm). Results are expressed in RFU (Relative Fluorescence Units), as difference between T120 and T0.
as §1

T2 sequence (P56817 46-501): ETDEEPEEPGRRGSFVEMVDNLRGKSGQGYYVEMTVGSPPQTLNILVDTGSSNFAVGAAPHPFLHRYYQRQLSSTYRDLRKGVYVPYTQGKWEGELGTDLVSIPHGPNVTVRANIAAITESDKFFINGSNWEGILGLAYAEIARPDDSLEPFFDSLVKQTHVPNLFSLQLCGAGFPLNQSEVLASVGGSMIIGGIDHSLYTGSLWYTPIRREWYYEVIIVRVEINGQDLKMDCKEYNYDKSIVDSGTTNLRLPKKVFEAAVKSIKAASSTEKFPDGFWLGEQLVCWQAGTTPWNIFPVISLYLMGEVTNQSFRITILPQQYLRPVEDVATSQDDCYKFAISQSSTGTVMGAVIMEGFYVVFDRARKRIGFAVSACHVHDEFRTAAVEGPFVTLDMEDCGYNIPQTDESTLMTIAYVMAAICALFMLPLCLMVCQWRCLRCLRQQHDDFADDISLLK

With `COc1cnc(C(=O)Nc2ccc(F)c(C3(C)CCC(C)(C#N)C(N)=N3)c2)cn1` (single isomer, unassigned) [Compound 15], in test [1], the “Cellular αLisa assay in SKNBE2 cells Abeta 42 pIC50” value was 8.16. Moreover, the IC50 in test [2] is 0.0661 µM; in test [3], 0.00977 µM.
On the same counts, the results for `COc1cnc(C(=O)Nc2ccc(F)c(C3(C)CCC(C)(C#N)C(N)=N3)c2)cn1` (single isomer, unassigned) [Compound 16] are 7.35, 1.35 µM and 0.257 µM.
For `COc1cnc(C(=O)Nc2ccc(F)c([C@]3(CF)CC[C@](C)(S(C)(=O)=O)C(N)=N3)c2)cn1` [Compound 1], the figures for the IC50 in test [1], in test [2] and in test [3] were 1.35 µM, over 10 µM and 2.63 µM, respectively.
On the same counts, the results for `COc1cnc(C(=O)Nc2ccc(F)c([C@]3(CF)CC[C@](C)(C#N)C(N)=N3)c2)cn1` [Compound 4] are 0.692 µM, 5.75 µM and 0.851 µM.
On the same counts, the results for `COc1cnc(C(=O)Nc2ccc(F)c([C@]3(CF)CC[C@@](C)(C#N)C(N)=N3)c2)cn1` [Compound 5] are 0.0501 µM, 0.417 µM and 0.0537 µM.
On the same counts, the results for `COc1cnc(C(=O)Nc2ccc(F)c([C@@]3(C)N=C(N)[C@@](C)(C#N)C[C@H]3F)c2)cn1` [Compound 6] are 0.24 µM, 0.537 µM and 0.145 µM.
Regarding `COc1cnc(C(=O)Nc2ccc(F)c([C@@]3(C)N=C(N)[C@@](C)(C#N)C[C@@H]3F)c2)cn1` [Compound 7], the IC50 in test [1] was 0.0661 µM; in test [2], 0.562 µM; in test [3], 0.0794 µM.
The like results for `COc1cnc(C(=O)Nc2ccc(F)c([C@@]3(C)N=C(N)[C@](C)(C#N)C[C@@H]3F)c2)cn1` [Compound 8] were, in that order, 0.0132 µM, 0.0708 µM and 0.0129 µM.
The like results for `COc1cnc(C(=O)Nc2ccc(F)c([C@]3(C)CC[C@@](C)(S(C)(=O)=O)C(N)=N3)c2)cn1` [Compound 10] were, in that order, 0.00112 µM, 0.0219 µM and 0.00389 µM.
Regarding `COc1cnc(C(=O)Nc2ccc(F)c([C@]3(C(F)F)CC[C@](C)(C#N)C(N)=N3)c2)cn1` [Compound 11], the IC50 in test [1] is 0.339 µM; in test [2], 0.891 µM; in test [3] it was 0.138 µM.
The like results for `COc1cnc(C(=O)Nc2ccc(F)c([C@@]3(C(F)F)CC[C@@](C)(C#N)C(N)=N3)c2)cn1` [Compound 12] were, in that order, over 8.91 µM, over 10 µM and 6.76 µM.
On the same counts, the results for `COc1cnc(C(=O)Nc2ccc(F)c([C@@]3(C(F)F)CC[C@](C)(C#N)C(N)=N3)c2)cn1` [Compound 13] are over 8.91 µM, over 10 µM and over 10 µM.
On the same counts, the results for `COc1cnc(C(=O)Nc2ccc(F)c([C@]3(C(F)F)CC[C@@](C)(C#N)C(N)=N3)c2)cn1` [Compound 14] are 0.049 µM, 0.115 µM and 0.0117 µM.
Turning to `COc1cnc(C(=O)Nc2ccc(F)c([C@@]3(C)N=C(N)[C@](C)(S(C)(=O)=O)C[C@@H]3F)c2)cn1` [Compound 17], the IC50 in test [1] was 0.0145 µM; in test [2], 0.0933 µM; in test [3], 0.0309 µM.
Turning to `COc1cnc(C(=O)Nc2ccc(F)c([C@@]3(C)N=C(N)[C@@](C)(S(C)(=O)=O)C[C@@H]3F)c2)cn1` [Compound 18], the IC50 is 3.55 µM in test [1], over 10 µM in test [2] and 5.75 µM in test [3].
The like results for `C[C@]1(S(C)(=O)=O)CC[C@@](CF)(c2cc(NC(=O)c3ccc(F)cn3)ccc2F)N=C1N` [Compound 19] were, in that order, 0.38 µM, 0.302 µM and 0.38 µM.
The like results for `C[C@]1(S(C)(=O)=O)CC(F)(F)[C@@](C)(c2cc(NC(=O)c3cnc(OCF)cn3)ccc2F)N=C1N` [Compound 23] were, in that order, 4.47 µM, 4.68 µM and 1.66 µM.
On the same counts, the results for `C[C@]1(c2cc(NC(=O)c3cnc(OCF)cn3)ccc2F)N=C(N)[C@](C)(S(C)(=O)=O)CC1(F)F` [Compound 24] are 0.468 µM, 0.977 µM and 0.0912 µM.
With `CC1(S(=O)(=O)C2CC2)CCC(CF)(c2cc(NC(=O)c3ccc(F)cn3)ccc2F)N=C1N` (stereo not drawn) [Compound 25], the figures for the IC50 in test [1], in test [2] and in test [3] were 0.00372 µM, 0.00204 µM and 0.0024 µM, respectively.
On the same counts, the results for `CCOc1cnc(C(=O)Nc2ccc(F)c(C3(CF)CCC(C)(S(C)(=O)=O)C(N)=N3)c2)cn1` (stereo not drawn) [Compound 37] are 0.00347 µM, 0.0324 µM and 0.00372 µM.
Take `CC1(S(C)(=O)=O)CCC(CF)(c2cc(NC(=O)c3ncc(F)cn3)ccc2F)N=C1N` (stereo not drawn) [Compound 38]: the IC50 in test [1] was 0.00708 µM; in test [2], 0.00417 µM; in test [3], 0.00389 µM.
The like results for `Cc1nc(C(=O)Nc2ccc(F)c(C3(CF)CCC(C)(S(C)(=O)=O)C(N)=N3)c2)co1` (stereo not drawn) [Compound 40] were, in that order, 0.00186 µM, 0.00331 µM and 0.00457 µM.
On the same counts, the results for `CC1(S(C)(=O)=O)CCC(CF)(c2cc(NC(=O)c3cnc(C(F)F)cn3)ccc2F)N=C1N` (stereo not drawn) [Compound 42] are 0.0024 µM, 0.0224 µM and 0.0038 µM.
On the same counts, the results for `CC1(S(C)(=O)=O)CCC(CF)(c2cc(NC(=O)c3ncc(C(F)(F)F)cn3)ccc2F)N=C1N` (stereo not drawn) [Compound 43] are 0.00447 µM, 0.0646 µM and 0.00912 µM.
In the case of `CC1(S(C)(=O)=O)CCC(CF)(c2cc(NC(=O)c3ncc(Cl)cn3)ccc2F)N=C1N` (stereo not drawn) [Compound 44], the IC50 is 0.00115 µM in test [1], 0.00339 µM in test [2] and 0.00363 µM in test [3].
The like results for `COc1cnc(C(=O)Nc2ccc(F)c(C3(CF)CCC(C)(S(C)(=O)=O)C(N)=N3)c2)nc1` (stereo not drawn) [Compound 45] were, in that order, 0.00324 µM, 0.0135 µM and 0.00316 µM.
Regarding `C[C@@]1(S(C)(=O)=O)CC[C@@](CF)(c2cc(NC(=O)c3ccc(F)cn3)cc(F)c2F)N=C1N` [Compound 47], the IC50 in test [1] was 0.0166 µM; in test [2] it was 0.00437 µM; in test [3] it was 0.00355 µM.
